Measurements: patent US9273028B2, “Heterocyclic tyrosine kinase inhibitors” (Biogen MA Inc., priority 2010, dated 2016)

Key:
Format in all cases: biochemical
Itk = molecular target: T1, Itk (Homo sapiens, UniProt Q08881); experiment: Itk kinase selectivity assay (Example 142 procedure, Table 3 modifications); details: ATP 10 μM
T1 construct: purchased Carna Bioscience 08-181
T1 sequence (Q08881 1-620): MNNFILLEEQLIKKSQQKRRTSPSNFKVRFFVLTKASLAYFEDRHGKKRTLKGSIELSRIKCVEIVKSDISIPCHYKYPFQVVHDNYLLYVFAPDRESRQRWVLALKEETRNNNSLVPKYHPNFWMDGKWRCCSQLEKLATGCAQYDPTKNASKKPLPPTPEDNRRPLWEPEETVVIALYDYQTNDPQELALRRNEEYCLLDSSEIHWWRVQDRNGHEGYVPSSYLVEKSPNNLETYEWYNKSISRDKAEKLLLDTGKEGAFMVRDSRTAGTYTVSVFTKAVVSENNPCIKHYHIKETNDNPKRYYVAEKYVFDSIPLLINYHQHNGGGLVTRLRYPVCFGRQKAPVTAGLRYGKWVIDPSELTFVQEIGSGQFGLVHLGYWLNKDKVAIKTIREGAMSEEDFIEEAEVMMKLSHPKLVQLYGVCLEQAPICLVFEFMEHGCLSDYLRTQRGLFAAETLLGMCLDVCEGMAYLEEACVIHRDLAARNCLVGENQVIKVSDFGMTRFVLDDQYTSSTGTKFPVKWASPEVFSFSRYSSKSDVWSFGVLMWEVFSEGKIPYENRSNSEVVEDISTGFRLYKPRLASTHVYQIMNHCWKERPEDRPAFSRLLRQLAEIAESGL
Experimental: (§1) The purpose of the Tec in vitro assay is to determine compound potency against Tec through the measurement of IC50. Compound inhibition is measured after monitoring the amount of phosphorylation of a fluorescein-labeled polyGT peptide (Invitrogen PV3610) in the presence of active Tec enzyme (Carna Biosciences 08-182), ATP, and inhibitor. The Tec kinase reaction was done in a black 96 well plate (costar 3694). For a typical assay, a 29 μL aliquot of a ATP/peptide master mix (final concentration; ATP 25 μM, polyGT 100 nM) in kinase buffer (10 mM Tris-HCl pH 7.5, 10 mM MgCl2, 200 μM Na3PO4, 5 mM DTT, 0.01% Triton X-100, and 0.2 mg/ml casein) is added to each well. Next, 1 μL of a 3-fold, 50× compound titration in 100% DMSO solvent is added, followed by adding 20 uL of Tec enzyme mix in 1× kinase buffer (with a final concentration of 0.125 nM). The assay is incubated for 15 minutes before being stopped with 5 μl, of a 220 mM EDTA solution. Aliquots (5 μL) of the kinase reaction are transferred to a low volume white 384 well plate (Corning 3674), and 5 μL of a 2× detection buffer (Invitrogen PV3574, with 2 nM Tb-PY20 antibody, Invitrogen PV3552) is added. The plate is covered and incubated for 45 minutes at room temperature. Time resolved fluorescence (TRF) on Molecular Devices M5 (332 nm excitation; 488 nm emission; 518 nm fluorescein emission) is measured.
(§2) Using the procedure described in Example 142, with the modifications shown in Table 3, selectivity for Itk, Txk, and Lck was measured.

Lck = molecular target: T2, Lck (Homo sapiens, UniProt P06239); experiment: Lck kinase selectivity assay (Example 142 procedure, Table 3 modifications); details: ATP 5 μM
T2 construct: purchased Carna Bioscience 08-170
Experimental: as §1, §2

Tec = molecular target: T3, Tec (Homo sapiens, UniProt P42680); experiment: In vitro Tec kinase selectivity assay (Tec-POLYGT-LS); details: ATP 25 μM
T3 construct: purchased Carna Biosciences 08-182
T3 sequence (P42680 1-631): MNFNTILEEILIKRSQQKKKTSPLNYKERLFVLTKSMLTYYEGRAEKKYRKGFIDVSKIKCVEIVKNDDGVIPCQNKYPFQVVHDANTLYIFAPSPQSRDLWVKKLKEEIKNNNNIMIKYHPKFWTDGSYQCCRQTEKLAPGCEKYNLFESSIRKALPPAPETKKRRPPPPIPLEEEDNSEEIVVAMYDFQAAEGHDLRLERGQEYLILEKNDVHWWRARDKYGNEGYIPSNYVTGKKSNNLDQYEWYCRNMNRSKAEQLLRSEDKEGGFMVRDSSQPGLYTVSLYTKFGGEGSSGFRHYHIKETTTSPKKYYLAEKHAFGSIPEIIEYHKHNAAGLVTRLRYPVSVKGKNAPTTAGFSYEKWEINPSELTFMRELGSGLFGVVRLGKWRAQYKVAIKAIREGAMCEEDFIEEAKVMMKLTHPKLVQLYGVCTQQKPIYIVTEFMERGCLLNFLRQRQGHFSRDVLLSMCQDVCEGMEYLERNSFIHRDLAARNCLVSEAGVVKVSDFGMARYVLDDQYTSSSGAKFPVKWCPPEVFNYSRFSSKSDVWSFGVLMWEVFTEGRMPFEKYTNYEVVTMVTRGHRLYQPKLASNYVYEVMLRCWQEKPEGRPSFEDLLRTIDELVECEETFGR
Experimental: In Vitro Tec Kinase Selectivity Assay
as §1

BTK = molecular target: T4, BTK (Homo sapiens, UniProt Q06187); experiment: In vitro BTK kinase assay (BTK-POLYGAT-LS); details: IC50 (10 uM ATP)
T4 construct: purchased Upstate 14-552
In short: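 Poly-GAT peptide at 100 nM with 10 μM ATP (final) in pH 7.5 Tris buffer containing MgCl2, DTT, Triton X-100 and 0.2 mg/ml casein.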

Txk = molecular target: T5, Txk (Homo sapiens, UniProt P42681); experiment: Txk kinase selectivity assay (Example 142 procedure, Table 3 modifications); details: ATP 100 μM
T5 construct: purchased Carna Bioscience 08-183
T5 sequence (P42681 1-527): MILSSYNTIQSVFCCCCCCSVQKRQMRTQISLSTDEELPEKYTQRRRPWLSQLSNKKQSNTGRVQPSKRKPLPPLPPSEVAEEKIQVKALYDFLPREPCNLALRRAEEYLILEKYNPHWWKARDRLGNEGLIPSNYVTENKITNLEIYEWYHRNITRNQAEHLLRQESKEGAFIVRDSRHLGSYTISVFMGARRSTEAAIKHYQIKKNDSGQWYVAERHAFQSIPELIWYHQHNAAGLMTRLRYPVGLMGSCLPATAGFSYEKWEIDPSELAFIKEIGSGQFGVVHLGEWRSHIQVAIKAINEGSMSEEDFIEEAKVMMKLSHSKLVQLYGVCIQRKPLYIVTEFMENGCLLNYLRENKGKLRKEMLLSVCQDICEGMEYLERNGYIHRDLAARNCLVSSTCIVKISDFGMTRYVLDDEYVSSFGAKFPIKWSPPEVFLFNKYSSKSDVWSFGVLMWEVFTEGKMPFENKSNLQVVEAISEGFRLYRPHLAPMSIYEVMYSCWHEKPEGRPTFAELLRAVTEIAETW
Experimental: as §1, §2

T2 sequence (P06239 whole entry): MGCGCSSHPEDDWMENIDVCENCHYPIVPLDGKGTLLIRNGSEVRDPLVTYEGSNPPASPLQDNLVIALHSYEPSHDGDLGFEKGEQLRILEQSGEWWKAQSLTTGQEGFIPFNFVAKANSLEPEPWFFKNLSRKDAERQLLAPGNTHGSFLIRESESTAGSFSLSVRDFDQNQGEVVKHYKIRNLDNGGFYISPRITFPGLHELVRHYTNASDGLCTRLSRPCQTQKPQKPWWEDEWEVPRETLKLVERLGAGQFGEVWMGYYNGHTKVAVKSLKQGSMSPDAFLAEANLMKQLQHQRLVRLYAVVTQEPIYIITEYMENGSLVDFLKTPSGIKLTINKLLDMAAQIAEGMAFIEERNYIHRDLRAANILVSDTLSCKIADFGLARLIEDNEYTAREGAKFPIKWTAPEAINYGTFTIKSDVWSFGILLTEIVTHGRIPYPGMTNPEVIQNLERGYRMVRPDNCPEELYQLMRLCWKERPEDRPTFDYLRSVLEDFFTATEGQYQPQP
T4 sequence (Q06187 whole entry): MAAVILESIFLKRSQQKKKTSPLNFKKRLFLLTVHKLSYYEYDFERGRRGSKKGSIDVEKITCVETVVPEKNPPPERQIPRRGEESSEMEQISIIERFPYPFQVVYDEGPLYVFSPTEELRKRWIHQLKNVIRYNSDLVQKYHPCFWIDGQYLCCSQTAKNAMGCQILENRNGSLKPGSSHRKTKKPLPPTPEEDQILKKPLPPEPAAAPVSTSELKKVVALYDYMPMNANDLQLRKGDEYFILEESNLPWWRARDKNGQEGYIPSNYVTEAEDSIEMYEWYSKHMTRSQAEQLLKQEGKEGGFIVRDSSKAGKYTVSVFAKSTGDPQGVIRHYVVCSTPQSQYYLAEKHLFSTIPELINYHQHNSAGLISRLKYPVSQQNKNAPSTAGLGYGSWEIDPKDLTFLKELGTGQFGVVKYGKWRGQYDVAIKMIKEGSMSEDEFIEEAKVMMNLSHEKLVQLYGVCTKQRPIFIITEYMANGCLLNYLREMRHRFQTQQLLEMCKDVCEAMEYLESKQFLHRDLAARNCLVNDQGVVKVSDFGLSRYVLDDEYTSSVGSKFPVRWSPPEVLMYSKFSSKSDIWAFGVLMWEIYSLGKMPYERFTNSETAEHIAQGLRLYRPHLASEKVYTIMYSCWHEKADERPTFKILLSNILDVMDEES

| SMILES | IC50 (Itk) | IC50 (Lck) | IC50 (Tec) | IC50 (BTK) | IC50 (Txk) |
| --- | --- | --- | --- | --- | --- |
| CC[C@@H](Nc1cc(Cl)cc(Cl)c1)C(=O)N1CCC2CCN(c3ncnc4[nH]ccc34)C2C1 (some centres unmarked) [Compound 99] | 100 to 999 nM | 100 to 999 nM | 100 to 999 nM | < 100 nM | 1000 to 10000 nM |
| O=C(CNc1ccccc1S(=O)(=O)N1CCCCC1)N1CCC2CCN(c3ncnc4[nH]ccc34)C2C1 (centres unmarked) [Compound 113] | 1000 to 10000 nM | > 10000 nM | 1000 to 10000 nM | – | 1000 to 10000 nM |
| CC1C(Nc2ncnc3[nH]ncc23)CCCN1C(=O)CNc1ccccc1S(=O)(=O)N1CCCCC1 (centres unmarked) [Compound 67] | 1000 to 10000 nM | – | 100 to 999 nM | < 100 nM | – |
| O=C(CNc1cc(F)cc(Cl)c1)N1CCCC(Nc2ncnc3[nH]ccc23)C1C(F)(F)F (centres unmarked) [Compound 23] | 1000 to 10000 nM | – | 100 to 999 nM | < 100 nM | – |
| O=C(CNc1cc(Cl)cc(Cl)c1)N1CC[C@H]2CCN(c3ncnc4[nH]ccc34)[C@H]2C1 [Compound 123] | < 100 nM | 100 to 999 nM | < 100 nM | – | 100 to 999 nM |
| C[C@@H]1[C@H](Nc2ncnc3[nH]ncc23)CCCN1C(=O)CNc1cc(F)cc(Cl)c1 [Compound 25] | 100 to 999 nM | – | 100 to 999 nM | < 100 nM | – |
| C[C@@H]1[C@H](Nc2ncnc3[nH]ncc23)CCCN1C(=O)CNc1cc(Cl)cc(Cl)c1 [Compound 29] | 100 to 999 nM | – | < 100 nM | < 100 nM | – |
| O=C(CNc1cc(Cl)cc(Cl)c1)N1CC2CC(Nc3ncnc4[nH]ccc34)C1C2 (centres unmarked) [Compound 174] | > 10000 nM | > 10000 nM | > 10000 nM | < 100 nM | > 10000 nM |
| CN(c1ncnc2[nH]ncc12)C1CCCCN(C(=O)CNc2cc(Cl)cc(Cl)c2)C1 (centres unmarked) [Compound 167] | 1000 to 10000 nM | 1000 to 10000 nM | 100 to 999 nM | – | > 10000 nM |
| O=C(CNc1cc(Cl)cc(Cl)c1)N1Cc2ccccc2C(Nc2ncnc3[nH]ccc23)C1 (centres unmarked) [Compound 96] | 100 to 999 nM | 100 to 999 nM | 100 to 999 nM | < 100 nM | > 10000 nM |
| C[C@@H]1[C@H](Nc2ncnc3[nH]ccc23)CCCN1C(=O)CNc1cc(Cl)cc(Cl)c1 [Compound 89] | 100 to 999 nM | – | < 100 nM | – | – |
| O=C(CNc1cc(Cl)cc(Cl)c1)N1CC[C@@H]2CCN(c3ncnc4[nH]ccc34)[C@@H]2C1 [Compound 124] | 100 to 999 nM | 100 to 999 nM | < 100 nM | – | 100 to 999 nM |
| CCC[C@@H](Nc1cc(F)cc(Cl)c1)C(=O)N1CCC2CCN(c3ncnc4[nH]ccc34)C2C1 (some centres unmarked) [Compound 100] | 100 to 999 nM | 100 to 999 nM | 100 to 999 nM | < 100 nM | 1000 to 10000 nM |
| CN(c1ncnc2[nH]ccc12)C1CCCCN(C(=O)CNc2cc(Cl)cc(Cl)c2)C1 (centres unmarked) [Compound 143] | > 10000 nM | > 10000 nM | > 10000 nM | – | > 10000 nM |
| CC1C(Nc2ncnc3[nH]ccc23)CCCN1C(=O)CNc1cc(Cl)cc(Cl)c1 (centres unmarked) [Compound 105] | 100 to 999 nM | 100 to 999 nM | 100 to 999 nM | – | 1000 to 10000 nM |
| O=C(CNc1ccccc1S(=O)(=O)c1ccccc1)N1CCC2CCN(c3ncnc4[nH]ccc34)C2C1 (centres unmarked) [Compound 114] | 100 to 999 nM | > 10000 nM | 100 to 999 nM | – | 100 to 999 nM |

Now from value to compound:

| IC50 (Itk) | IC50 (Lck) | IC50 (Tec) | IC50 (BTK) | IC50 (Txk) | SMILES |
| --- | --- | --- | --- | --- | --- |
| 1000 to 10000 nM | 1000 to 10000 nM | 100 to 999 nM | < 100 nM | > 10000 nM | O=C(CNc1cc(Cl)cc(Cl)c1)N1CCC[C@@H](Nc2ncnc3[nH]ncc23)C1 [Compound 222] |
| 1000 to 10000 nM | > 10000 nM | 100 to 999 nM | – | > 10000 nM | O=C(CNc1cc(Cl)cc(Cl)c1)N1CCC[C@@H](Nc2ncnc3[nH]ccc23)C1 [Compound 220] |
| < 100 nM | 100 to 999 nM | < 100 nM | – | 100 to 999 nM | O=C(CNc1cc(Cl)cc(Cl)c1)N1CCC2CCN(c3ncnc4[nH]ccc34)C2C1 (centres unmarked) [Compound 183] |
| 100 to 999 nM | 100 to 999 nM | 100 to 999 nM | – | 1000 to 10000 nM | CN(c1ncnc2[nH]ccc12)[C@@H]1CCCN(C(=O)CNc2cc(Cl)cc(Cl)c2)C1 [Compound 209] |
| < 100 nM | – | < 100 nM | < 100 nM | < 100 nM | NC(=O)c1cnc2[nH]ccc2c1N[C@H]1CCCN(C(=O)CNc2cc(Cl)cc(Cl)c2)[C@H]1C(F)(F)F [Compound 226] |
| 100 to 999 nM | 100 to 999 nM | 100 to 999 nM | < 100 nM | 1000 to 10000 nM | O=C(CNc1cc(Cl)cc(Cl)c1)N1CCC2CCN(c3ncnc4[nH]ncc34)C2C1 (centres unmarked) [Compound 192] |
| 1000 to 10000 nM | 100 to 999 nM | 1000 to 10000 nM | < 100 nM | 1000 to 10000 nM | O=C([C@H](Nc1cc(Cl)cc(Cl)c1)C1CC1)N1CCC2CCN(c3ncnc4[nH]ccc34)C2C1 (some centres unmarked) [Compound 176] |
| 100 to 999 nM | 1000 to 10000 nM | 100 to 999 nM | < 100 nM | 1000 to 10000 nM | CC(C)CN(CC(C)C)S(=O)(=O)c1ccccc1NCC(=O)N1CCC[C@@H](Nc2ncnc3[nH]ncc23)C1 [Compound 217] |
